In US20080146617A1, “Methods of treating inflammatory diseases” (Roche Palo Alto LLC, priority 2006, published 2008):
Like-named read-outs stand apart in the source and are kept apart here.

Legend:
Experiment in all cases: KinomeScan kinase profiling
Assay type in all cases: binding
JAK2(Kin.Dom2) = target: T1, JAK2(Kin.Dom2) (Homo sapiens, UniProt O60674)
T1 construct: JAK2(Kin.Dom2); purchased Ambit Biosciences (San Diego, Calif.)

EPHA3 = target: T2, EPHA3 (Homo sapiens, UniProt P29320)
T2 construct: purchased Ambit Biosciences (San Diego, Calif.)

STK3 = target: T3, STK3 (Homo sapiens, UniProt Q13188)
T3 construct: purchased Ambit Biosciences

AURKA = target: T4, AURKA (Homo sapiens, UniProt O14965)
T4 construct: purchased Ambit Biosciences (San Diego, Calif.)

EPHB1 = target: T5, EPHB1 (Homo sapiens, UniProt P54762)
T5 construct: purchased Ambit Biosciences (San Diego, Calif.)
Excerpt: (§1) The selectivity of a given CK1δ, CK1ε or CK1δ-CK1ε inhibitor compound can be determined by testing the compound against a panel of known kinases. An example of such a kinase profiling technology is the “KinomeScan” from Ambit Biosciences in which compounds can be screened for their modulatory activities against more than 200 known kinases.

TNIK = target: T6, TNIK (Homo sapiens, UniProt Q9UKE5)
T6 construct: purchased Ambit Biosciences
Excerpt: as §1

PAK6 = target: T7, PAK6 (Homo sapiens, UniProt Q9NQU5)
T7 construct: purchased Ambit Biosciences (San Diego, Calif.)
Excerpt: as §1

AKT1 = target: T8, AKT1 (Homo sapiens, UniProt P31749)
T8 construct: purchased Ambit Biosciences (San Diego, Calif.)
Excerpt: as §1

EPHA5 = target: T9, EPHA5 (Homo sapiens, UniProt P54756)
T9 construct: purchased Ambit Biosciences (San Diego, Calif.)
Excerpt: as §1

CAMK2B = target: T10, CAMK2B (Homo sapiens, UniProt Q13554)
T10 construct: purchased Ambit Biosciences (San Diego, Calif.)
Excerpt: as §1

LYN = target: T11, LYN (Homo sapiens, UniProt P07948)
T11 construct: purchased Ambit Biosciences (San Diego, Calif.)
Excerpt: as §1

FER = target: T12, FER (Homo sapiens, UniProt P16591)
T12 construct: purchased Ambit Biosciences (San Diego, Calif.)
Excerpt: as §1

CAMK2D = target: T13, CAMK2D (Homo sapiens, UniProt Q13557)
T13 construct: purchased Ambit Biosciences (San Diego, Calif.)
Excerpt: as §1

BLK = target: T14, BLK (Homo sapiens, UniProt P51451)
T14 construct: purchased Ambit Biosciences (San Diego, Calif.)
Excerpt: as §1

CAMK1 = target: T15, CAMK1 (Homo sapiens, UniProt Q14012)
T15 construct: purchased Ambit Biosciences (San Diego, Calif.)
Excerpt: as §1

CSNK1G2 = target: T16, CSNK1G2 (Homo sapiens, UniProt P78368)
T16 construct: purchased Ambit Biosciences (San Diego, Calif.)
Excerpt: as §1

MAP4K5 = target: T17, MAP4K5 (Homo sapiens, UniProt Q9Y4K4)
T17 construct: purchased Ambit Biosciences (San Diego, Calif.)
Excerpt: as §1

MAP3K4 = target: T18, MAP3K4 (Homo sapiens, UniProt Q9Y6R4)
T18 construct: purchased Ambit Biosciences (San Diego, Calif.)
Excerpt: as §1

GAK = target: T19, GAK (Homo sapiens, UniProt O14976)
T19 construct: purchased Ambit Biosciences (San Diego, Calif.)
Excerpt: as §1

INSR = target: T20, INSR (Homo sapiens, UniProt P06213)
T20 construct: purchased Ambit Biosciences (San Diego, Calif.)
Excerpt: as §1

TXK = target: T21, TXK (Homo sapiens, UniProt P42681)
T21 construct: purchased Ambit Biosciences
Excerpt: as §1

CLK1 = target: T22, CLK1 (Homo sapiens, UniProt P49759)
T22 construct: purchased Ambit Biosciences (San Diego, Calif.)
Excerpt: as §1

PTK2 = target: T23, PTK2 (Homo sapiens, UniProt Q05397)
T23 construct: purchased Ambit Biosciences
Excerpt: as §1

PDPK1 = target: T24, PDPK1 (Homo sapiens, UniProt O15530)
T24 construct: purchased Ambit Biosciences (San Diego, Calif.)
Excerpt: as §1

BTK = target: T25, BTK (Homo sapiens, UniProt Q06187)
T25 construct: purchased Ambit Biosciences (San Diego, Calif.)
Excerpt: as §1

CLK4 = target: T26, CLK4 (Homo sapiens, UniProt Q9HAZ1)
T26 construct: purchased Ambit Biosciences (San Diego, Calif.)
Excerpt: as §1

HCK = target: T27, HCK (Homo sapiens, UniProt P08631)
T27 construct: purchased Ambit Biosciences (San Diego, Calif.)
Excerpt: as §1

SYK = target: T28, SYK (Homo sapiens, UniProt P43405)
T28 construct: purchased Ambit Biosciences
Excerpt: as §1

MYLK2 = target: T29, MYLK2 (Homo sapiens, UniProt Q9H1R3)
T29 construct: purchased Ambit Biosciences (San Diego, Calif.)
Excerpt: as §1

TIE2 = target: T30, TIE2 (Homo sapiens, UniProt Q02763)
T30 construct: purchased Ambit Biosciences
Excerpt: as §1

CAMKK2 = target: T31, CAMKK2 (Homo sapiens, UniProt Q96RR4)
T31 construct: purchased Ambit Biosciences (San Diego, Calif.)
Excerpt: as §1

p38-gamma = target: T32, p38-gamma (Homo sapiens, UniProt P53778)
T32 construct: purchased Ambit Biosciences (San Diego, Calif.)
Excerpt: as §1

CAMKK1 = target: T33, CAMKK1 (Homo sapiens, UniProt Q8N5S9)
T33 construct: purchased Ambit Biosciences (San Diego, Calif.)
Excerpt: as §1

PKMYT1 = target: T34, PKMYT1 (Homo sapiens, UniProt Q99640)
T34 construct: purchased Ambit Biosciences (San Diego, Calif.)
Excerpt: as §1

SLK = target: T35, SLK (Homo sapiens, UniProt Q9H2G2)
T35 construct: purchased Ambit Biosciences
Excerpt: as §1

EPHA4 = target: T36, EPHA4 (Homo sapiens, UniProt P54764)
T36 construct: purchased Ambit Biosciences (San Diego, Calif.)
Excerpt: as §1

NEK2 = target: T37, NEK2 (Homo sapiens, UniProt P51955)
T37 construct: purchased Ambit Biosciences (San Diego, Calif.)
Excerpt: as §1

FYN = target: T38, FYN (Homo sapiens, UniProt P06241)
T38 construct: purchased Ambit Biosciences (San Diego, Calif.)
Excerpt: as §1

NEK9 = target: T39, NEK9 (Homo sapiens, UniProt Q8TD19)
T39 construct: purchased Ambit Biosciences (San Diego, Calif.)
Excerpt: as §1

p38-alpha = target: T40, p38-alpha (Homo sapiens, UniProt Q16539)
T40 construct: purchased Ambit Biosciences (San Diego, Calif.)

Measured: inhibition at 10 µM

T14 sequence (P51451 whole entry): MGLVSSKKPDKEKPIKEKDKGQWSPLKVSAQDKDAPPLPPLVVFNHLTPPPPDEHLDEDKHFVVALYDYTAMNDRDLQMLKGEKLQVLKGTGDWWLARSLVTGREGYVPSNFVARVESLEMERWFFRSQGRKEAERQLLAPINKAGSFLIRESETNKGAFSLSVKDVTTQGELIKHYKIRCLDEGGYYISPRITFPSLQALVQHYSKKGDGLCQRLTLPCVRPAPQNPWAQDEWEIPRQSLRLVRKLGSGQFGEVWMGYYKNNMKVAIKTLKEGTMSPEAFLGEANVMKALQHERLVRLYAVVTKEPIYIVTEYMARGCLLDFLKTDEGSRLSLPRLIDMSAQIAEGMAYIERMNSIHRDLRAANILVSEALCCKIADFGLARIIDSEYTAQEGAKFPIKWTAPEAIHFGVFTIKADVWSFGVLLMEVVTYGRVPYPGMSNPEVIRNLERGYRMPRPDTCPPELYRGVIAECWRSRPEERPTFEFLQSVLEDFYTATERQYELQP
T40 sequence (Q16539 whole entry): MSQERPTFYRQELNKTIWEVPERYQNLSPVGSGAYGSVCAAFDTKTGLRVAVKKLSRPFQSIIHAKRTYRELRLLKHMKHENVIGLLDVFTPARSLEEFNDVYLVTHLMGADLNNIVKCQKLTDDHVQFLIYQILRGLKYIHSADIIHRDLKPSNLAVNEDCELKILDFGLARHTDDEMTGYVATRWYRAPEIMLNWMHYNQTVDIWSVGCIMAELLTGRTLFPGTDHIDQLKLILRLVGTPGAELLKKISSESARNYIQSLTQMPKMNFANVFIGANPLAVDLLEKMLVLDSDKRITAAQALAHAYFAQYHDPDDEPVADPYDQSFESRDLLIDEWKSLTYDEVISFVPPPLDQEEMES
T8 sequence (P31749 whole entry): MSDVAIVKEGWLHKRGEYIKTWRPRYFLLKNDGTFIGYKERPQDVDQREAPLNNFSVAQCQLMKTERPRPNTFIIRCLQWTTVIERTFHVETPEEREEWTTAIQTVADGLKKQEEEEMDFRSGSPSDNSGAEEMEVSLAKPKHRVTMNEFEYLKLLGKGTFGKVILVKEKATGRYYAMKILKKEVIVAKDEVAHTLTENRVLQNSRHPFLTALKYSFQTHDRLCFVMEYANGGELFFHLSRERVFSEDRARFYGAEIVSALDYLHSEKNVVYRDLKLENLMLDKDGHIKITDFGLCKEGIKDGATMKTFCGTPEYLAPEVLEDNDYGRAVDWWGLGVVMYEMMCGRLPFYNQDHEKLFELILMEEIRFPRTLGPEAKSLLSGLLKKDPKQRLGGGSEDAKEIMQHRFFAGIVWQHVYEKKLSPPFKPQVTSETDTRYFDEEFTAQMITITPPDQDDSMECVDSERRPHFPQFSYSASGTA
T34 sequence (Q99640 whole entry): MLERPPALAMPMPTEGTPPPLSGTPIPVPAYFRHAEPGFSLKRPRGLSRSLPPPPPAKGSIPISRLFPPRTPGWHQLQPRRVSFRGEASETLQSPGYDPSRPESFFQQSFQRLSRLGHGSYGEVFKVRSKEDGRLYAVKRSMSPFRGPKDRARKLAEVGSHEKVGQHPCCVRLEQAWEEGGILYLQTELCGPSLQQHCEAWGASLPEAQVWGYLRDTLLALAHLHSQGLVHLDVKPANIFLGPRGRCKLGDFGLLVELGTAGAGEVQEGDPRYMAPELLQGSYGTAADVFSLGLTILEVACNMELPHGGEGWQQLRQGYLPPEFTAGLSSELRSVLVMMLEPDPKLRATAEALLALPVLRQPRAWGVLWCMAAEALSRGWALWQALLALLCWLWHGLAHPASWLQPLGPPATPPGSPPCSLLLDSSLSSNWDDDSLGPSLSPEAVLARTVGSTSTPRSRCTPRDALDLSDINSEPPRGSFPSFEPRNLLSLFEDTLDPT
T1 sequence (O60674 849-1124 limits assumed): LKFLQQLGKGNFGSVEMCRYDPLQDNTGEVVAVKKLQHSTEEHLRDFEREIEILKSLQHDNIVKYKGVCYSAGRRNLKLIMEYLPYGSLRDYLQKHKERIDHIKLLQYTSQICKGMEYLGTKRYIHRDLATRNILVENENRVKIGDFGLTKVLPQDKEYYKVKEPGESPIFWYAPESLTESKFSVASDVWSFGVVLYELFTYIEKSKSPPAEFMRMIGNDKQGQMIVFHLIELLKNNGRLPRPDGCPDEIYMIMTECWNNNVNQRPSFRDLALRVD
T4 sequence (O14965 whole entry): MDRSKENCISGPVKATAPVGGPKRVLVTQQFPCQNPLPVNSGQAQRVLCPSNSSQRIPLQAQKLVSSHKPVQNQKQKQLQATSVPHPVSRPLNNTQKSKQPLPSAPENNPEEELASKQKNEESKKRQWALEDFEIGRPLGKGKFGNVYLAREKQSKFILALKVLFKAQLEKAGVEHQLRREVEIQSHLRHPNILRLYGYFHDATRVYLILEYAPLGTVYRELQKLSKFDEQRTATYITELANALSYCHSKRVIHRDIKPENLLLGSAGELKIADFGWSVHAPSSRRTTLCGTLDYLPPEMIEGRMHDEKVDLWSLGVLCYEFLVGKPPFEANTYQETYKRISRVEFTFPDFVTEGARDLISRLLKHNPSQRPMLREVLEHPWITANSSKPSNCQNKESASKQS
T13 sequence (Q13557 whole entry): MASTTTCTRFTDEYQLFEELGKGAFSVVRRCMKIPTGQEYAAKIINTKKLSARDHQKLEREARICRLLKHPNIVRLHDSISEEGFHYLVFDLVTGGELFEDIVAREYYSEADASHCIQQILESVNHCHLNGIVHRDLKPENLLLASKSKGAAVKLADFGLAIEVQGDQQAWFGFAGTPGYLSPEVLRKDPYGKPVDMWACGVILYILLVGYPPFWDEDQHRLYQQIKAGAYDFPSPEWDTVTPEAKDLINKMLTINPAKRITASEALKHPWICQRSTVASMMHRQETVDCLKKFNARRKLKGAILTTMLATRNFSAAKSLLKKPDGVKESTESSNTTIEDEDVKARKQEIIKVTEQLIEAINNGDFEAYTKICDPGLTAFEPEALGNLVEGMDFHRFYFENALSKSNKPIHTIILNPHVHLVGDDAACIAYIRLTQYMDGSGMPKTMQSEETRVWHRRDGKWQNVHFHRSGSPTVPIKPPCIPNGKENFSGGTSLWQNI
T12 sequence (P16591 whole entry): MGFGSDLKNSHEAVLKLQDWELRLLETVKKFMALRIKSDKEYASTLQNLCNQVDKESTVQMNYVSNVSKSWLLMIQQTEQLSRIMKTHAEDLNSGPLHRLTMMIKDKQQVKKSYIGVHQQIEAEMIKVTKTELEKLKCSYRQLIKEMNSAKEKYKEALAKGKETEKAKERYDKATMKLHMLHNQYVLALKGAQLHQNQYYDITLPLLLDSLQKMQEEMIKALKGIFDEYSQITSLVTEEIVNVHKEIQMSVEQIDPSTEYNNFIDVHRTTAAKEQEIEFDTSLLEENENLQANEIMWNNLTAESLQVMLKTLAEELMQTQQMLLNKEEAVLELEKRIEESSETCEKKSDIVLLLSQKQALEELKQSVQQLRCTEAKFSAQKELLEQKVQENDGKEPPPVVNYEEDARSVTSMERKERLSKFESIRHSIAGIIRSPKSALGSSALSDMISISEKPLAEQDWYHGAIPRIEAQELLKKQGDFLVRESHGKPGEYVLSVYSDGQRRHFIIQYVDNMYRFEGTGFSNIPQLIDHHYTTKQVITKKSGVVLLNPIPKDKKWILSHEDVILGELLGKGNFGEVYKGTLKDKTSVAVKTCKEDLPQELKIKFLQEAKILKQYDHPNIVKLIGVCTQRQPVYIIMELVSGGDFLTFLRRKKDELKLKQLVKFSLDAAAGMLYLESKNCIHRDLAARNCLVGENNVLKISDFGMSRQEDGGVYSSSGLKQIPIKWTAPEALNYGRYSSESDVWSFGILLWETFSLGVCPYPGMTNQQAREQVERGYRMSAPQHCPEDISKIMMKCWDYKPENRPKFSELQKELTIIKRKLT
T15 sequence (Q14012 whole entry): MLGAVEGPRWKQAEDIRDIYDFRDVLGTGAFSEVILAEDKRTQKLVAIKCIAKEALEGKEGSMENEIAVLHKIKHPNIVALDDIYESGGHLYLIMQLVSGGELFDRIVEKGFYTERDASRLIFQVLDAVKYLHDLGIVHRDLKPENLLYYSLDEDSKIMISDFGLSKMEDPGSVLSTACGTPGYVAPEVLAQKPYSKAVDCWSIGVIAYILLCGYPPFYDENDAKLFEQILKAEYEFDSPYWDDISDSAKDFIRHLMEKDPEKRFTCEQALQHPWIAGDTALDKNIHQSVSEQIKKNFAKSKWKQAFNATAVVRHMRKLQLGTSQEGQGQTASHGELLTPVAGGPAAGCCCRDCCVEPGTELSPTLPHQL
T27 sequence (P08631 whole entry): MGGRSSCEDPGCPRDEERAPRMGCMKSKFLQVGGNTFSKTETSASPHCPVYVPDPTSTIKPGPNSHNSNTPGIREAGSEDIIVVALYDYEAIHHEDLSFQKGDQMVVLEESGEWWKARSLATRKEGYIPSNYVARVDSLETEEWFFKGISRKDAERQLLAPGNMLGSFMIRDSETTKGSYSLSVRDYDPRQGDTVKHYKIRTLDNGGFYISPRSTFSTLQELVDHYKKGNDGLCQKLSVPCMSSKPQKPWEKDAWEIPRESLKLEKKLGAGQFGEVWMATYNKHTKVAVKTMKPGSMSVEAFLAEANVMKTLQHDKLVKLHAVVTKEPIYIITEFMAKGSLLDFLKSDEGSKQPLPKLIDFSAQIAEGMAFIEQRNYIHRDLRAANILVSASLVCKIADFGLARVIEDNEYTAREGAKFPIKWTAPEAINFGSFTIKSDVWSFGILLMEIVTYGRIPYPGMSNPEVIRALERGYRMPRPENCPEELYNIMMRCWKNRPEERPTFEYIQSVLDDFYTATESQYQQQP

NC(=O)c1ccc(-c2nc(-c3ccc4c(c3)OCCO4)c(-c3ccccn3)[nH]2)cc1 [D4476, 4-[4-(2,3-Dihydro-benzo[1,4]dioxin-6-yl)-5-pyridin-2-yl-1H-imidazol-2-yl]benzamide]
< 50%: JAK2(Kin.Dom2) | EPHA3 | STK3 | AURKA | EPHB1 | TNIK | PAK6 | AKT1 | EPHA5 | CAMK2B | LYN | FER | CAMK2D | BLK | CAMK1 | CSNK1G2 | MAP4K5 | MAP3K4 | GAK | INSR | TXK | CLK1 | PTK2 | PDPK1 | BTK | CLK4 | HCK | SYK | MYLK2 | TIE2 | CAMKK2 | p38-gamma | CAMKK1 | PKMYT1 | SLK | EPHA4 | NEK2 | FYN | NEK9 | p38-alpha

NC(=O)c1ccc(-c2nc(-c3ccc4c(c3)OCO4)c(-c3ccccn3)[nH]2)cc1 [SB431542, 4-(4-benzo-[1,3]dioxol-5-yl-5-pyridin-2-yl-1H-imidazol-2-yl)benzamide]
< 50%: JAK2(Kin.Dom2) | EPHA3 | STK3 | AURKA | EPHB1 | TNIK | PAK6 | AKT1 | EPHA5 | CAMK2B | LYN | FER | CAMK2D | BLK | CAMK1 | CSNK1G2; 10 μM, CSNK1G2, read-out: % Inhibition | MAP4K5 | MAP3K4 | GAK | INSR | TXK | CLK1 | PTK2 | PDPK1 | BTK | CLK4 | HCK | SYK | MYLK2 | TIE2 | CAMKK2 | p38-gamma | CAMKK1 | PKMYT1 | SLK | EPHA4 | NEK2 | FYN | NEK9 | p38-alpha
